# Results from patent US20100041632A1, “USES OF THE CARBOXY-AMIDO-TRIAZOLE COMPOUNDS AND SALTS THEREOF” (priority 2006, published 2010).
# Key:
# [1] = tested on: Wistar rats; assay: Adjuvant induced arthritis (AA) of rat, paw oedema; type: in vivo
# Experimental: Negative control (AA+NS): […] positive control (AA+Dex): dexamethasone, i.p., 0.067 mg/kg/day. Vehicle control (AA+PEG400): […] CAI (AA+CAI): 20 mg/ml CAI, ig, 0.1 ml/100 g/day (20 mg/kg/day). Combination (AA+CAI+Dex): dexamethasone, 0.067 mg/kg/day (i.p.) plus CAI 20 mg/kg/day (p.o.). Normal volumes of left and right hind paw were measured before adjuvant injection. […]
# [2] = tested on: Kunming mice; assay: Hot plate test (analgesic effect); type: in vivo
# Experimental: Kunming mice (18-22 g, female) were randomly divided into 4 groups with 20 animals per group.
# Control group with dissolvent: 10 μl PEG400 was administered (ig) twice with the interval of 24 hours. The pain intensity test was carried out 8 hours after the second administration. 200 μl N.S. was injected (sc) 5 minutes before the test.
# Morphine/PEG400 group: 10 μl PEG400 was administered (ig) twice with the interval of 24 hours. The pain intensity test was carried out 8 hours after the second administration. Morphine (2 mg/kg body weight) was injected (sc) 5 minutes before the test.
# CAI/N.S. group: CAI (20 mg/kg body weight, 2 mg/ml) was administered (ig) twice with the interval of 24 hours. The pain intensity test was carried out 8 hours after the second administration. 200 μl N.S. was injected (sc) 5 minutes before the test.
# The pain intensity test was carried out 8 hours after the second administration. Morphine (2 mg/kg body weight) was injected (sc) 5 minutes before the test.
# The mice were placed onto a hot plate (53±0.5° C.) and the latency periods (second) of hopping responses were recorded as the pain threshold index.
# [3] = tested on: Kunming mice; assay: Croton oil-induced ear edema mouse model; type: in vivo
# Experimental: Male Kunming mice, weighted 18-22 g, were randomly divided to the following experiment groups, 20 mice/group:
# Negative control: normal saline was injected (ig), 0.1 ml/10 g/day for 3 consecutive days.
# Vehicle control: PEG400 was injected (ig), […] for 3 consecutive days.
# Positive control: Dexamethasone (0.2 mg/ml) was injected (ip), 0.1 ml/10 g/day for 3 consecutive days.
# Test group: CAI or its analogs (2 mg/ml, analogs are as described in example 5) was administered (ig), 0.1 ml/10 g/day for 3 consecutive days.
# 8 hours after the last administration, 20 μl of croton oil solution (2%) was applied to the right ear of each mouse. The left ear remained untreated as control. The animals were sacrificed 4 hours later, and a piece of tissue was punched from the same position of the treated and untreated ear. The tissues were weighed on a 0.1 mg balance. The difference in weight between the two pieces of tissue of each mouse was taken as a measure of swelling intensity.
# [4] = tested on: IL-1β; assay: IL-1β levels in paw tissue and serum of adjuvant arthritis rat (ELISA); type: in vivo; settings: AA rats, day 29, ELISA
# Experimental: The adjuvant arthritis rat was prepared as described in example 8. Treatment was performed as described in example 8. Blood was collected from eve socket on day 29 and left in room temperature to allow coagulating. Then serum was separated by centrifugation at 3000 rpm for 10 min and kept in −20° C. After animals were sacrificed, the subcutaneous tissue of the right hind paw and that surrounding the tarsotibial joints was removed, broke into pieces, and placed in 5 ml normal saline (0.9%). The tissues were homogenized in a high speed homogenizer. Then the homogenate was centrifuged at 4° C. and 10,000 rpm for 15 min. The supernatants were collected and stored at −20° C. until further analysis.
# IL-1β and TNF-α levels in paw tissue and serum were measured using specific rat ELISA kits according to the manufacturer's instructions.
# [5] = tested on: Kunming mice; assay: Mouse writhing test (acetic acid); type: in vivo; settings: 20 mg/kg ig for 4 days
# Experimental: Kunming mice (18-22 g, male) were randomly divided into several groups with 20 animals in each group.
# Control group: PEG400 was administered (ig) for 4 days, 0.1 ml/10 g body weight.
# Test groups: CAI and its analogues (compounds with structural formula of A, R1═Cl or H, R2═Cl, H, Br, CH3 or CF3, R3═Cl, Br, CF3, NO2 or CN, X═O, S or C═O; The compounds are listed in Table 6 (A1˜A10)) were administered (ig) for 4 days (20 mg/kg body weight, 2 mg/ml).
# The pain intensity test was carried out 8 hours after the last drug administration. 0.6% acetic acid (0.1 ml/10 g body weight) was injected (ip). The animals were put into a glass cylinder immediately. The writhing frequency in the following 5-15 minutes was recorded.
# [6] = tested on: Kunming mice; assay: Effect of CAI on drug addiction caused by morphine (naloxone-induced jumping); settings: mouse, in vivo
# Experimental: 160 Kunming mice (18-22 g, half male and half female) were divided into 4 groups randomly, with 40 mice per group:
# Control group with solvent, PEG400/N.S. (10 μl/g/day PEG400, (ig), 4 days);
# Group treated with CAI, CAI/N.S. (CAI is resolved in PEG400 to reach a final concentration of […], 20 mg CAI/kg/day was administered (ig) for 4 days, N.S. was taken according to morphine administration in table 1);
# Group treated with morphine, PEG400/morphine (10 μl/g/day PEG400 was administered (ig) for 4 days, morphine was administered according to the table below);
# 4 hours after the morphine administration on the fifth day, animals of each group was injected (ip) with 1 mg/kg naloxone and then put into a tank (5000 ml) immediately. The jump frequency in 30 minutes was recorded. Two-factor analysis of variance by SPSS was performed to analyse the experiment results.
smiles,measurement,setting,value
"NC(=O)c1nnn(Cc2cc(Cl)c(C(=O)c3ccc(Cl)cc3)c(Cl)c2)c1N [CAI, 5-amino-1-[3,5-dichloro-4-(4-chlorobenzoyl chloride)benzyl]-1H-1,2,3-triazole-4-carboxamide]","Primary paw oedema (%), mean ± std","[1]; 1 d, CAI 20 mg/kg/day ig, Dex 0.067 mg/kg/day i.p.",116.2 ± 17.6 %
same,"Primary paw oedema (%), mean ± std",[1]; 2 d,131.9 ± 23.0 %
same,"Primary paw oedema (%), mean ± std",[1]; 5 d,122.4 ± 12.4 %
same,"Primary paw oedema (%), mean ± std",[1]; 8 d,121.6 ± 21.6 %
same,"Primary paw oedema (%), mean ± std",[1]; 11 d,129.3 ± 23.5 %
same,"Primary paw oedema (%), mean ± std",[1]; 14 d,112.0 ± 15.7 %
same,"Secondary paw oedema (%), mean ± std","[1]; 14 d, right hind paw",2.3 ± 1.0 %
same,"Primary paw oedema (%), mean ± std",[1]; 17 d,104.3 ± 20.7 %
same,"Secondary paw oedema (%), mean ± std",[1]; 17 d,3.1 ± 0.8%
same,"Primary paw oedema (%), mean ± std",[1]; 20 d,92.2 ± 16.0 %
same,"Secondary paw oedema (%), mean ± std",[1]; 20 d,8.8 ± 3.2 %
same,"Primary paw oedema (%), mean ± std",[1]; 23 d,92.4 ± 15.4 %
same,"Secondary paw oedema (%), mean ± std",[1]; 23 d,8.6 ± 2.3 %
same,"Primary paw oedema (%), mean ± std",[1]; 26 d,88.6 ± 13.4 %
same,"Secondary paw oedema (%), mean ± std",[1]; 26 d,8.6 ± 1.9 %
same,"Primary paw oedema (%), mean ± std",[1]; 29 d,86.9 ± 23.1 %
same,"Secondary paw oedema (%), mean ± std",[1]; 29 d,6.5 ± 2.7 %
same,Effect on paw oedema of AA rats (in words),"[1]; compared with control group, two-way ANOVA",inhibits primary and secondary paw oedema
same,"Pain threshold (sec, mean ± std)","[2]; hot plate 53±0.5° C., latency of hopping response, CAI 20 mg/kg ig twice, morphine 2 mg/kg sc",19.9 ± 6.2 s
same,Analgesic effect in hot plate test (in words),[2]; two-factor ANOVA,neither have obvious analgesic effect alone
same,Swelling intensity (mg) mean ± std,"[3]; ear weight difference 4 hours after 2% croton oil, CAI/analogs 2 mg/ml ig, dexamethasone 0.2 mg/ml ip, 0.1 ml/10 g/day, 3 days",7.8 ± 0.2 mg
same,Anti-inflammatory effect in ear edema model (in words),"[3]; mouse, in vivo",obvious anti-inflammatory effects
same,IL-1β levels in paw tissue and serum (in words),[4],significantly reduced
same,Analgesic effect in writhing test (in words),[5],obvious analgesic effect
same,Writhing frequency mean ± std,"[5]; 0.6% acetic acid ip, writhing in following 5-15 minutes",8.1 ± 2.3
same,Addiction / withdrawal syndrome (in words),[6],does not cause addiction
